Test system: SEM cells
Experiment: cell viability relative to DMSO control; higher = less cytotoxic
Conditions: 48 h
In short: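 NOMO1 or SEM cells were plated at 500 cells/well and P12-Ichikawa cells at 1000 cells/well in 1536-well plates (5 μl), after each leukemia line had been adapted for at least four passages in each medium. Pin dosing delivered library compounds in DMSO at 11 threefold concentrations, 47 μM to 0.79 nM. CellTiter-Glo One luminescence was read after 48 h at 37°C. Viability is reported as a per-plate percentage of DMSO wells, with cell-free wells as background.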

[1] = HPLM + 10% dialyzed FBS, 0.000781 µM
[2] = HPLM + 10% dialyzed FBS, 0.00234 µM
[3] = HPLM + 10% dialyzed FBS, 0.00702 µM
[4] = HPLM + 10% dialyzed FBS, 0.0211 µM
[5] = HPLM + 10% dialyzed FBS, 0.0632 µM
[6] = HPLM + 10% dialyzed FBS, 0.19 µM
[7] = HPLM + 10% dialyzed FBS, 0.569 µM
[8] = HPLM + 10% dialyzed FBS, 1.71 µM
[9] = HPLM + 10% dialyzed FBS, 5.12 µM
[10] = HPLM + 10% dialyzed FBS, 15.4 µM
[11] = HPLM + 10% dialyzed FBS, 46.1 µM
[12] = RPMI 5 mM glucose + 10% FBS, 0.000781 µM
[13] = RPMI 5 mM glucose + 10% FBS, 0.00234 µM
[14] = RPMI 5 mM glucose + 10% FBS, 0.00702 µM
[15] = RPMI 5 mM glucose + 10% FBS, 0.0211 µM
[16] = RPMI 5 mM glucose + 10% FBS, 0.0632 µM
[17] = RPMI 5 mM glucose + 10% FBS, 0.19 µM
[18] = RPMI 5 mM glucose + 10% FBS, 0.569 µM
[19] = RPMI 5 mM glucose + 10% FBS, 1.71 µM
[20] = RPMI 5 mM glucose + 10% FBS, 5.12 µM
[21] = RPMI 5 mM glucose + 10% FBS, 15.4 µM
[22] = RPMI 5 mM glucose + 10% FBS, 46.1 µM
[23] = RPMI 5 mM glucose + 10% dialyzed FBS, 0.000781 µM
[24] = RPMI 5 mM glucose + 10% dialyzed FBS, 0.00234 µM
[25] = RPMI 5 mM glucose + 10% dialyzed FBS, 0.00702 µM
[26] = RPMI 5 mM glucose + 10% dialyzed FBS, 0.0211 µM
[27] = RPMI 5 mM glucose + 10% dialyzed FBS, 0.0632 µM
[28] = RPMI 5 mM glucose + 10% dialyzed FBS, 0.19 µM
[29] = RPMI 5 mM glucose + 10% dialyzed FBS, 0.569 µM
[30] = RPMI 5 mM glucose + 10% dialyzed FBS, 1.71 µM
[31] = RPMI 5 mM glucose + 10% dialyzed FBS, 5.12 µM
[32] = RPMI 5 mM glucose + 10% dialyzed FBS, 15.4 µM
[33] = RPMI 5 mM glucose + 10% dialyzed FBS, 46.1 µM

Row | SMILES | cell viability [1] [%] | cell viability [2] [%] | cell viability [3] [%] | cell viability [4] [%] | cell viability [5] [%] | cell viability [6] [%] | cell viability [7] [%] | cell viability [8] [%] | cell viability [9] [%] | cell viability [10] [%] | cell viability [11] [%] | cell viability [12] [%] | cell viability [13] [%] | cell viability [14] [%] | cell viability [15] [%] | cell viability [16] [%] | cell viability [17] [%] | cell viability [18] [%] | cell viability [19] [%] | cell viability [20] [%] | cell viability [21] [%] | cell viability [22] [%] | cell viability [23] [%] | cell viability [24] [%] | cell viability [25] [%] | cell viability [26] [%] | cell viability [27] [%] | cell viability [28] [%] | cell viability [29] [%] | cell viability [30] [%] | cell viability [31] [%] | cell viability [32] [%] | cell viability [33] [%]
1 | CCOc1ccccc1N/N=C1/C(=O)N(c2nc(-c3ccccc3)cs2)N=C1C | 124 | 114 | 93 | 122 | 105 | 99.2 | 100 | 86.4 | 45.9 | 8.56 | 3.58 | 103 | 114 | 102 | 116 | 144 | 110 | 111 | 70.7 | 70 | 9.65 | 2.74 | 114 | 106 | 101 | 115 | 106 | 97.4 | 81.7 | 77.1 | 59.4 | 9.71 | 3.01
2 | Nc1nccc(-c2ccc3noc(-c4ccc(Cl)cc4)c3c2)n1 |  |  |  |  |  |  |  |  |  |  |  | 98.5 | 103 | 99.3 | 102 | 93.9 | 116 | 112 | 104 | 89.1 | 88.9 | 92.7 | 118 | 119 | 119 | 119 | 104 | 115 | 126 | 119 | 108 | 114 | 108
3 | CC(C)[C@H](O)C(=O)N[C@@H](C)C(=O)N[C@@H]1C(=O)N(C)CCc2ccccc21 | 118 | 122 | 127 | 111 | 132 | 82.7 | 119 | 110 | 74 | 110 | 107 |  |  |  |  |  |  |  |  |  |  |  | 120 | 135 | 116 | 103 | 119 | 94.6 | 97.5 | 109 | 38.1 | 106 | 95.7
4 | C[C@H](NC(=O)[C@@H](O)c1cc(F)cc(F)c1)C(=O)N[C@@H]1C(=O)N(C)c2ccccc2-c2ccccc21 |  |  |  |  |  |  |  |  |  |  |  | 120 | 121 | 120 | 135 | 122 | 128 | 107 | 115 | 111 | 121 | 85.9 |  |  |  |  |  |  |  |  |  |  | 
5 | COc1cc2c(cc1O)CCC1C2CC[C@@]2(C)C1CC[C@@H]2O (stereo partly specified) | 88.7 | 114 | 98.4 | 25.9 | 108 | 113 | 95.8 | 73.2 | 40.7 | 31.4 | 26.2 | 120 | 108 | 129 | 22 | 124 | 125 | 107 | 84.2 | 49.1 | 23.5 | 21.7 | 116 | 118 | 126 | 24.6 | 118 | 123 | 108 | 88.7 | 40.2 | 26.5 | 28.2
6 | Cc1noc(N[S+](=O)([O-])c2ccc(N)cc2)c1C | 80.2 | 93.5 | 104 | 88.1 | 93.2 | 102 | 83.1 | 96.3 | 99.8 | 90.1 | 102 | 87.6 | 97.5 | 89.7 | 88.5 | 96.2 | 110 | 96 | 114 | 98 | 100 | 92.3 | 99.2 | 91.5 | 96.3 | 89.5 | 120 | 103 | 111 | 104 | 103 | 108 | 99.1
7 | NC(=O)c1nnn(Cc2cc(Cl)c(C(=O)c3ccc(Cl)cc3)c(Cl)c2)c1N | 112 | 116 | 125 | 107 | 127 | 128 | 135 | 116 | 111 | 124 | 89.4 | 115 | 133 | 117 | 114 | 112 | 127 | 120 | 110 | 107 | 106 | 67.6 | 88.6 | 113 | 89.8 | 90.5 | 116 | 95.1 | 99.7 | 101 | 107 | 97.6 | 48.6
8 | CC(C)(Sc1cc(C(C)(C)C)c(O)c(C(C)(C)C)c1)Sc1cc(C(C)(C)C)c(O)c(C(C)(C)C)c1 | 73.2 | 89.8 | 60 | 90.9 | 91.2 | 91.9 | 84.2 | 81.4 | 46.4 | 89.1 | 90 | 90 | 94.6 | 67 | 96.1 | 80.7 | 103 | 91.3 | 84.1 | 49.1 | 95.4 | 105 | 79 | 81.5 | 76.7 | 97.7 | 86.1 | 94.5 | 90.2 | 89.3 | 54.4 | 89.1 | 104
9 | CN(C)c1ccc(-c2nc3c(N4CCN(CC(=O)Nc5nccs5)CC4)c(Cl)cnc3[nH]2)cc1 | 129 | 102 | 115 | 112 | 115 | 112 | 109 | 86.9 | 105 | 80 | 58.8 | 103 | 118 | 130 | 107 | 106 | 124 | 107 | 87.7 | 92.5 | 70.3 | 51.2 | 105 | 121 | 120 | 116 | 107 | 111 | 102 | 89.7 | 97.9 | 71.1 | 49.6
10 | COCC(=O)NC/C=C/c1ccc2ncnc(Nc3ccc(Oc4ccc(C)nc4)c(C)c3)c2c1 | 87.2 | 87.7 | 87.1 | 96.4 | 92.4 | 92.3 | 108 | 90.3 | 82.2 | 89.1 | 66.5 | 102 | 105 | 124 | 95.2 | 105 | 98.8 | 103 | 97.8 | 93 | 99.9 | 34.6 | 78.8 | 82.9 | 93.6 | 95.6 | 101 | 86.8 | 94.2 | 91 | 71.6 | 88 | 49
11 | COc1cc(C[C@@H](CO)[C@H](CO)Cc2ccc(O)c(OC)c2)ccc1O | 84 | 89.3 | 92.1 | 95 | 104 | 109 | 114 | 107 | 111 | 89.1 | 105 | 91.8 | 85.1 | 88.4 | 81.8 | 91.7 | 105 | 106 | 104 | 105 | 110 | 93.3 | 85.7 | 92.7 | 98.1 | 99.7 | 113 | 102 | 105 | 112 | 108 | 108 | 110
12 | COCCCC/C(=N\OCCN)c1ccc(C(F)(F)F)cc1 | 86.4 | 100 | 75.7 | 80.8 | 92 | 76.1 | 83.9 | 96.9 | 75.4 | 77 | 28.1 | 94.3 | 86.1 | 79.7 | 94.5 | 92.7 | 85.9 | 87.2 | 92 | 74.6 | 73.7 | 35.6 | 105 | 103 | 88.7 | 95.8 | 111 | 100 | 91.6 | 106 | 99.4 | 93.1 | 52.3
13 | CN(C[C@@H]1COCCO1)[S+]([O-])(=O)NC2=CC3=C(C=C2)\C=C/C4=C(C=C(C=N4)C5=C[N](C)N=C5)C3=O | 85.5 | 93.9 | 92.6 | 86.4 | 79.5 | 80.8 | 69.9 | 48.8 | 29.8 | 22.4 | 24.8 | 113 | 86.6 | 110 | 109 | 85.5 | 76.3 | 53.1 | 35.2 | 22.2 | 16 | 16.4 | 78.9 | 96.4 | 91.2 | 86.8 | 85.2 | 66.3 | 60.8 | 38.5 | 24.5 | 17.3 | 18.3
14 | CCN1\C=C(C(O)=O)/C(=O)C2=C1C(=C(N3CCNC(C)C3)C(=C2)F)F (stereo unspecified) | 92.5 | 99 | 106 | 117 | 109 | 95.3 | 116 | 110 | 118 | 97.3 | 112 | 99.8 | 95 | 111 | 111 | 110 | 100 | 108 | 110 | 112 | 107 | 96.4 | 93.4 | 105 | 116 | 119 | 133 | 107 | 125 | 117 | 102 | 97 | 119
15 | C=C1CCC2[C@](C)(CO)C(O)CC[C@]2(C)C1C/C=C1/C(=O)OCC1O (stereo partly specified) | 122 | 122 | 112 | 126 | 116 | 111 | 109 | 105 | 103 | 117 | 93.3 | 125 | 115 | 118 | 97.8 | 108 | 99.2 | 88.3 | 87.1 | 81.5 | 84.8 | 85.6 | 129 | 120 | 121 | 115 | 113 | 116 | 109 | 106 | 109 | 96.3 | 92.3

From the supplement of paper PMC11451515
